We go through two compounds from US8173682B2, “Substituted pyridones as inhibitors of poly(ADP-ribose) polymerase (PARP)” (Aventis Pharmaceuticals Inc., priority 2004, dated 2012).

Structures can show the parent of a compound that is named as a salt.

Experiment [1] deals with intracellular synthesis of poly(ADP-ribose) in HL60 cells. Description: Cell-based PARP assay (poly(ADP-ribose) immunodetection in fixed cells). The settings on record: Homo sapiens, HL-60, overnight incubation with compound, serum-free media. On the procedure: The following example illustrates the efficacy of the compounds of this invention in inhibiting the effects of PARP in a cell based assay.
Reagents: Media RMPI 1640+Glutamax: Gibco 61870-044); TBST/milk, TBST (Sigma T93039) containing 5% skimmed milk (Nestle Carnation nonfat dry milk)
HL60 cells at […] in serum free media are seeded into the wells of a 96-well plate at 100 μL/well. The plate is pre-incubated for 3 hr under normal tissue culture conditions. One hundred μL of serum-free media containing compound at 2× the required concentration in 0.6% DMSO are added (or 0.6% DMSO only to controls and blanks). The plate is incubated overnight under normal tissue culture conditions, then centrifuged at 190×g for 5 min at 4° C. to pellet cells. The media is carefully removed by aspiration, and the cells are incubated in 100 μL/well ice-cold 0.56% KCl for 2 min on ice. The plate is centrifuged as above to pellet cells, the KCl removed by aspiration, and 100 μL/well ice-cold methanol added. After 4 min on ice, methanol is removed by aspiration and the cells air-dried for 10-15 min at rt. The cells are washed with PBS×3, then washed with TBST/milk (1 wash, 5 min incubation at rt). The cells are incubated with 100 μL/well 0.25% Triton X 100 in PBS for 10 min at RT, then washed x# with PBS and ×1 with TBST. The cells are blocked for 1 hr with TBST/milk (200 μL/well) and then washed ×1 with TBST. The fixed cells are incubated with primary antibody (Calbiochem cat no. 528815) at 1:2000 dilution in TBST/milk (100 μL/well, overnight at 4 deg C.). The cells are washed with TBST (2 rinses, 1×15 min, 2×5 min at RT). The cells are incubated with secondary antibody (anti-rabbit Ig-biotin conjugate, Amersham RPN1004) in TBST/milk at 1:3500 dilution, 100 μL/well for 1 hr at RT. The cells are washed with TBST (2 rinses, 1×15 min, 2×5 min at RT). The cells are then incubated with 100 μL/well of 4-MUP (Sigma, M3168) in the dark for 4 hrs. The fluorescence is read using a plate reader (excitation at 360 nm, emission at 440 nm). To calculate compound effects, the fluorescence of the blank (no cells) is subtracted from all data. Fluorescence obtained with a standard cell-permeable potent inhibitor at 30 μM is subtracted from all other groups as this appears to represent a true blank. Compound effects can then be determined: a PARP inhibitor blocks the intracellular synthesis of poly(ADP-ribose), and results in a decreased reactivity (reduced final fluorescence) with primary antibody in the fixed and permeabilized cells.
The results obtained from this study are expressed as EC50 (median effective concentration of the test compound that was effective in preventing the cell death—expressed in micromolar (μM) concentration) for each of the tested compounds and are summarized in Table 2.

Experiment [2] concerns the target T1, recombinant human PARP (PARP1) (Homo sapiens, UniProt P09874).
T1 construct: Full length human PARP (PARP1) is assembled from PCR fragments; His6 tag with TEV site, from the pFastBac-HTb vector (own knowledge of the vector); made in house; host or cells: insect cells, baculovirus (Bac-to-Bac, Gibco-BRL)
Description: PARP enzyme assay, Method A (radioactivity or 'ELISA' enzyme assay with partially purified enzyme). Type of experiment: biochemical. The settings on record: recombinant human PARP preparation, radioactive or ELISA enzyme assay. The gist of the method:
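Partially purified recombinant full-length His-tagged human PARP1, baculovirus-expressed. Radioactive format: 100 μg/mL sonicated DNA, 100 μg/mL histones, 100 mM Tris pH 8.0, 10 mM MgCl2, 200 μM labeled NAD, 10 min 37 °C or 60 min RT, TCA-precipitated counts. ELISA format: 250 μM NAD plus biotin-NAD on histone plates, TMB A450.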
Background: An ELISA detects its analyte on a solid surface through an enzyme-linked reagent.

T1 sequence (P09874 whole entry, the tested form may be a part): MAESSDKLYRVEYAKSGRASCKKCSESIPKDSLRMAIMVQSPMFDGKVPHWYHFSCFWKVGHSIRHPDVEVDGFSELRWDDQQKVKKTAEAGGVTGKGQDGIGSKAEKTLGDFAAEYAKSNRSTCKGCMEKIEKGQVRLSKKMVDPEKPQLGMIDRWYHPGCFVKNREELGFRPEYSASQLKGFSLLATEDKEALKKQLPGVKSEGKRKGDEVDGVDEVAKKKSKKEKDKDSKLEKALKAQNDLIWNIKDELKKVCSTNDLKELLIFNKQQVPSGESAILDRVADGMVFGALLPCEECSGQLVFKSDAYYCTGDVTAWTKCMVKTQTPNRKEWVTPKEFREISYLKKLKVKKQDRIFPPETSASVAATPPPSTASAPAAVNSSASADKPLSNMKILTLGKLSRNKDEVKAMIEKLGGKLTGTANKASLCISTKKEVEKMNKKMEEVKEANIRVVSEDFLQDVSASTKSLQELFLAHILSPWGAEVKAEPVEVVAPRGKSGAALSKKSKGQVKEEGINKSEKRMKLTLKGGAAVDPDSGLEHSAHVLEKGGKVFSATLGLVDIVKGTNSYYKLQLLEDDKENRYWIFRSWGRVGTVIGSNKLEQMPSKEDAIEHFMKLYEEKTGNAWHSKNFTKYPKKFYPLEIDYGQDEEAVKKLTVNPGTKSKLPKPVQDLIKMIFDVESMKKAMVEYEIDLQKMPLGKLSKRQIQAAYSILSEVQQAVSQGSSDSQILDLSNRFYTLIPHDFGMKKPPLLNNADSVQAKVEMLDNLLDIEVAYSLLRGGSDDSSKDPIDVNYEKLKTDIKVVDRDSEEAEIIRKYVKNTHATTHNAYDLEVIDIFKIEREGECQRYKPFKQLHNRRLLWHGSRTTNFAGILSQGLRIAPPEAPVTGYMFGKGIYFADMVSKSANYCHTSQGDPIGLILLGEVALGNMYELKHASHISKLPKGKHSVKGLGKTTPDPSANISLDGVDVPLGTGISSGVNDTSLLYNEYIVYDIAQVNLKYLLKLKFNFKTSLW

The EC50 is the concentration giving half of the maximal effect. One may read the IC50 as the concentration that gives 50% inhibition. Regarding `CCc1cc(-c2ccc(S(=O)(=O)NCCCN3CCCCC3)s2)c(C)[nH]c1=O` [Example 63, 5-(5-Ethyl-2-methyl-6-oxo-1,6-dihydro-pyridin-3-yl)-thiophene-2-sulfonic acid (3-piperidin-1-yl-propyl)-amide hydrochloride], in experiment [1], the half-maximal effective concentration (EC50) is 430 nM. In addition, the IC50 in experiment [2] is 0.42 µM.

With `CCc1cc(-c2ccc(S(=O)(=O)NCCN(C)C)s2)c(C)[nH]c1=O` [Example 93, 5-(5-Ethyl-2-methyl-6-oxo-1,6-dihydropyridin-3-yl)thiophene-2-sulfonic acid (2-dimethylaminoethyl)amide hydrochloride], in experiment [1], the EC50 turned out to be 560 nM. In experiment [2], the IC50 amounted to 0.85 µM.
